According to patent EP3061351B1, “Food product for young subjects” (Dopharma Research B.V., priority 2015, dated 2016):

Legend:
[1] = 4.2 µM for 24 hours, Akbari et al.; cited from earlier work
[2] = test system: Caco-2 cells; assay: Interleukin-8 production of DON-challenged Caco-2 cells (ELISA); assay type: cell-based; details: apical side, 24 h incubation with 4.2 µM DON, digests 1:100 added 2 hours before DON
Description: (§1) Caco-2 cells were cultured in minimal essential media (MEM), supplemented with 10% FBS, 1% non essential amino acids (NEAA), 1% pyruvate, penicillin (100 U/mL) and streptomycin (100 µg/mL), all from Gibco (Life Technologies Europe, Bleiswijk, The Netherlands). Experiments with Caco-2 cells were conducted with cells grown on sterile 0.3 cm2 transwell with 0.4 µm pore polyester membrane inserts placed in a 24-well plate (Corning, Sigma-Aldrich, The Netherlands), if not stated otherwise. The cells were seeded at a density of 1 * 10^5 cells per insert. The cell culture plates were incubated at 37°C, in a humidified atmosphere with 5% CO2. […] The cell culture was regularly tested and found to be free of mycoplasma contamination.
Caco-2 and IPEC-J2 cells were grown on inserts and in 12 well plates respectively. Confluent layers of cells were incubated with 1:100 dilutions of digests 2 hours prior to addition of DON. Cells were then incubated in the presence of both digests and DON for 24 hours prior to analysis. TEER was measured as described above. Interleukin-8 (IL-8) was analyzed using porcine CXCL8/IL-8 DuoSet ELISA kit (DY535, R&D systems Abbingdon, UK) according to the manufacturer's protocol. Apical an basolateral supernatant of transwell plates were used for analysis. Samples were diluted ten times in PBS. […]

[3] = test system: IPEC-J2 cells; assay: MTT assay, cytotoxicity of DON; assay type: cell-based, porcine; details: 4.2 µM DON, confirmation of the literature, data not shown
Description: Intestinal porcine epithelial cells (IPEC-J2 passages 83 - 87) were a kind gift from prof. R. Pieters (IRAS, Utrecht University, The Netherlands). IPEC-J2 cells were cultured in 25 cm^2 cell culture flasks (Greiner Bio-One, Alphen a/d Rijn, The Netherlands) in Dulbecco's modified Eagle's medium (DMEM)/ Ham's F12 supplemented with 10% fetal bovine serum, penicillin (100 U/mL) and streptomycin (100 µg/mL) (Gibco, Life Technologies Europe, Bleiswijk, The Netherlands). IPEC-J2 cells were used for MTT analysis.
To confirm lack of cytotoxicity at 4.2 µM of DON as published previously by Akbari et al. (The FASEB Journal […]; 28, 2414-2429), an MTT assay using IPEC-J2 cells was performed in a 96-well plate. The MTT assay assesses cell viability by analyzing the capability of cells to reduce the tetrazolium dye MTT (3-(4,5-dimethylthiazol-2-yl)-2.5-diphenyltetrazolium bromide, Sigma Aldrich, Zwijndrecht, The Netherlands) into the purple colored formazan. Using colorimetric analysis, the cell viability is quantified. For the MTT assay, a 5 mg/ml MTT-stock was prepared in PBS and this was diluted six times in 10% FBS in medium. Supernatant was aspirated and cells were incubated with 100 µl of the MTT solution. This was incubated for 3 hours in the incubator. […] Plate was shaken at low intensity for ten minutes and absorption at 560 nm was measured using spectrophotometer (Fluostar Omega, BMG Labtech).

[4] = concentration of 4.2 µM, Akbari et al.; cited from earlier work
[5] = test system: Caco-2 cells; assay: TEER measurements of Caco-2 monolayer challenged with DON; assay type: cell-based; details: 4.2 µM DON, 24 hours
Description: as §1
Caco-2 cells were cultured as described above. The integrity of the monolayer was evaluated on a regular basis using the first two 24-well plates during 21 days. To avoid contamination, in the next well plates, TEER was only measured right before the start of the experiment. On average, TEER values for untreated cells were 550 ± 24 Ω˙cm2. […]
Caco-2 and IPEC-J2 cells were grown on inserts and in 12 well plates respectively. […] TEER was measured as described above. Interleukin-8 (IL-8) was analyzed using porcine CXCL8/IL-8 DuoSet ELISA kit (DY535, R&D systems Abbingdon, UK) according to the manufacturer's protocol. […]

[6] = test system: streptococci; details: among naturally present medium and long chain free fatty acids, Kabara et al. 1972; cited from earlier work

Row | SMILES | TEER reduction [1] [%] | IL8 production [2] [pg/mL] | cytotoxicity (MTT assay) [3] | direct cytotoxicity [4] | TEER decrease as compared to control [5] [%] | activity against streptococci [6]
1 | CC1=C[C@H]2O[C@@H]3[C@H](O)C[C@](C)([C@@]2(CO)[C@H](O)C1=O)[C@]31CO1 [DON, Deoxynivalenol] | ~80 | 121.7 | not cytotoxic | not cytotoxic | 15 | –
2 | CCCCCCCCCCCC(=O)O [lauric acid] | – | – | – | – | – | among the most active free fatty acids
3 | CCCCCC/C=C\CCCCCCCC(=O)O [palmitoleic acid] | – | – | – | – | – | among the most active free fatty acids
